Results published in patent publication US20240158446A1, “CYCLIC COMPOUND HAVING SELECTIVE INHIBITORY ACTION ON KRAS OVER HRAS AND NRAS” (CHUGAI SEIYAKU KABUSHIKI KAISHA, priority 2021, published 2024).
pIC50: −log10 of the molar value. Like-named read-outs stand apart in the source and are kept apart here. Values belong to the compound of their own block, whether it stands above or below them. Where a SMILES comes first, the peptide text is derived from it. Bridges are numbered along the chain shown (N, C = ends). [ ]: non-standard residue; d: D form. The star is where a group is joined. ξ: configuration not given here. hPhe(3,5-F2-4-CF3) = N[C@@H](CCc1cc(F)c(C(F)(F)F)c(F)c1)C(=O)O; hPhe(3-Cl-4-CF3) = N[C@@H](CCc1ccc(C(F)(F)F)c(Cl)c1)C(=O)O; NPrPhe(4-CF3) = CCCN[C@@H](Cc1ccc(C(F)(F)F)cc1)C(=O)O; NMeGly(cPent) = CN[C@H](C(=O)O)C1CCCC1; NMeD = CN[C@@H](CC(=O)O)C(=O)O; NMeL = CN[C@@H](CC(C)C)C(=O)O; ξNMeD = CNC(CC(=O)O)C(=O)O; αMeS = C[C@](N)(CO)C(=O)O; Morpholide = C1CN(*)CCO1; Piperidide = C1CCN(*)CC1; Ac5c = NC1(C(=O)O)CCCC1; Aze = O=C(O)[C@@H]1CCN1; Ac4c = NC1(C(=O)O)CCC1; ξP = O=C(O)C1CCCN1; Sar = CNCC(=O)O; Allyl = C=CC*

How the values were obtained:
[1] = tested on: human lung cancer strain NCI-H441;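 further: cell proliferation inhibition after four days measured by CellTiter-Glo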
[2] = target: GDP-bound NRAS wild-type protein (Homo sapiens, UniProt P01111); assay: Binding to NRAS by surface plasmon resonance (SPR), Single Cycle Kinetics; conditions: SPR, GDP-bound NRAS wild-type protein vs GDP-bound KRAS wild-type protein
Chain of GDP-bound NRAS wild-type protein (P01111 whole entry): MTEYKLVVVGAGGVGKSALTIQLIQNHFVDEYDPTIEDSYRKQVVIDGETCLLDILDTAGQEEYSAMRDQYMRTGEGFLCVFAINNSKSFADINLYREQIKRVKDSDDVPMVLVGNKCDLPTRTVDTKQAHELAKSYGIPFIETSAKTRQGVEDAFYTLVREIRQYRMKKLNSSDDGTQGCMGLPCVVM

[3] = target: GDP-bound HRAS wild-type protein (Homo sapiens, UniProt P01112); assay: Binding to HRAS by surface plasmon resonance (SPR), Single Cycle Kinetics; conditions: SPR, GDP-bound HRAS wild-type protein vs GDP-bound KRAS wild-type protein
Chain of GDP-bound HRAS wild-type protein (P01112 whole entry): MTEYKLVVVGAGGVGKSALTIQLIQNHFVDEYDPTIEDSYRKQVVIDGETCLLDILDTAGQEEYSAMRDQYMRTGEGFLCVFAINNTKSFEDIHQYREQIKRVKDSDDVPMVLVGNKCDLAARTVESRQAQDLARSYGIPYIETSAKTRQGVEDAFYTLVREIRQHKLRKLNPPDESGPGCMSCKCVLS

[4] = read-out: NCI-H441 IC50, NCI-H441 cells, four days, CellTiter-Glo

SMILES: C=CCOC[C@]1(C)NC(=O)[C@@H]2CCCN2C(=O)[C@H](CCc2cc(F)c(C(F)(F)F)c(F)c2)NC(=O)CN(C)C(=O)[C@H](Cc2ccc(C(F)(F)F)cc2)N(CCC)C(=O)CN(C)C(=O)CN(C)C(=O)[C@H]([C@@H](C)CC)NC(=O)[C@H](CC(C)C)N(C)C(=O)C[C@@H](C(=O)N2CCOCC2)N(C)C(=O)[C@H](C2CCCC2)N(C)C1=O [PP0763] ([NMeL]I[Sar][Sar][NPrPhe(4-CF3)][Sar][hPhe(3,5-F2-4-CF3)]P[αMeS](Allyl)[NMeGly(cPent)][NMeD]-Morpholide; lactam N-11)
pIC50 [1]: 7.08 | NRAS/KRAS (ratio of KD value with respect to NRAS to KD value with respect to KRAS) [2]: B (a compound having 3 or more and less than 10 is denoted as B) | HRAS/KRAS (ratio of KD value with respect to HRAS to KD value with respect to KRAS) [3]: B (a compound having 3 or more and less than 10 is denoted as B)

SMILES: CCO[C@@H]1C[C@H]2C(=O)NC3(CC(C)(C)C3)C(=O)N(C)[C@@H](C(CC)CC)C(=O)N(C)C(CC)CC(=O)N(C)[C@@H](CC)C(=O)N[C@@H]([C@@H](C)CC)C(=O)N(C)CC(=O)N(C)[C@H]3C/C=C\CCN(C3=O)[C@@H](Cc3ccc(C(F)(F)F)cc3)C(=O)N(C)CC(=O)N[C@@H](CCc3cc(F)c(C(F)(F)F)c(F)c3)C(=O)N2C1 (some centres unmarked) [PP1622]
pIC50 ([1]; read-out: NCI-H441 IC50, NCI-H441 cell proliferation, 4 days, CellTiter-Glo): 7.55

SMILES: CCO[C@@H]1C[C@H]2C(=O)NC3(CCC3)C(=O)N(C)[C@@H](C(CC)CC)C(=O)N(C)[C@H](C(=O)N3CCCCC3)CC(=O)N(C)[C@H]3CCC/C=C/c4ccc(cc4)C[C@@H](C(=O)N(C)CC(=O)N[C@@H](CCc4ccc(Cl)c(Cl)c4)C(=O)N2C1)N1CC/C=C\C[C@@H](C1=O)N(C)C(=O)CN(C1CC1)C(=O)[C@H]([C@@H](C)CC)NC3=O [PP3039]
pIC50 [1, 4]: 7.74

SMILES: CCCOC[C@H]1C(=O)N[C@@H]([C@@H](C)OCC)C(=O)N(C)CC(=O)N(C)[C@H]2C/C=C\CCN(C2=O)[C@@H](Cc2ccc(C)cc2)C(=O)N(C)CC(=O)N[C@@H](CCc2ccc(C(F)(F)F)c(OC)c2)C(=O)N2C[C@@H](C)C[C@H]2C(=O)NC2(CC(C)(C)C2)C(=O)N(C)[C@@H](C2CCCC2)C(=O)N(C)[C@H](C(=O)N(C)CC)CC(=O)N1C [PP2423]
pIC50 [1]: 7.14

SMILES: CCCN1C(=O)CN(C)C(=O)CN(C)C(=O)[C@H]([C@@H](C)CC)NC(=O)[C@H](CC(C)C)N(C)C(=O)C[C@@H](C(=O)N2CCCCC2)N(C)C(=O)[C@H](C2CCCC2)N(C)C(=O)C2(CCCC2)NC(=O)[C@@H]2CCCN2C(=O)[C@H](CCc2ccc(C(F)(F)F)c(Cl)c2)NC(=O)CN(C)C(=O)[C@@H]1Cc1ccc(C(F)(F)F)cc1 [PP0171] ([NMeL]I[Sar][Sar][NPrPhe(4-CF3)][Sar][hPhe(3-Cl-4-CF3)]P[Ac5c][NMeGly(cPent)][NMeD]-Piperidide; lactam N-11)
pIC50 [1, 4]: 8.16

SMILES: CCO[C@@H]1C[C@H]2C(=O)NC3(CCC3)C(=O)N(C)[C@@H](C3CCCC3)C(=O)N(C)[C@H](C(=O)N3CCCCC3)CC(=O)N(C)[C@H]3CCC/C=C/c4ccc(cc4)C[C@@H](C(=O)N(C)CC(=O)N[C@@H](CCc4ccc(Cl)c(Cl)c4)C(=O)N2C1)N1CC/C=C\C[C@@H](C1=O)N(C)C(=O)CN(C1CC1)C(=O)[C@H]([C@@H](C)CC)NC3=O [PP2958]
pIC50 [1, 4]: 7.71

SMILES: CCO[C@@H]1C[C@H]2C(=O)NC3(CC(C)(C)C3)C(=O)N(C)[C@@H](C(CC)CC)C(=O)N(C)[C@H](C(=O)N3CCCCC3)CC(=O)N(C)[C@H]3CCC/C=C/c4ccc(cc4)C[C@@H](C(=O)N(C)CC(=O)N[C@@H](CCc4ccc(Cl)c(Cl)c4)C(=O)N2C1)N1CC/C=C\C[C@@H](C1=O)N(C)C(=O)CN(C)C(=O)[C@H]([C@@H](C)CC)NC3=O [PP2953]
pIC50 [1, 4]: 7.48

Further lines, with some results ahead:

pIC50 [1]: 7.95
SMILES: CCO[C@@H]1C[C@H]2C(=O)NC3(CCC3)C(=O)N(C)[C@@H](C3CCCC3)C(=O)N(C)[C@H](C(=O)N(C)C)CC(=O)N(C)[C@@H](CC3CCCC3)C(=O)N[C@@H]([C@@H](C)CC)C(=O)N(C)CC(=O)N(C)[C@H]3CCCCCN(C3=O)[C@@H](Cc3ccc(C(F)(F)F)cc3)C(=O)N(C)CC(=O)N[C@@H](CCc3cc(F)c(C(F)(F)F)c(F)c3)C(=O)N2C1 [PP0670]
NRAS/KRAS (ratio of KD value with respect to NRAS to KD value with respect to KRAS) [2]: B (a compound having 3 or more and less than 10 is denoted as B) | HRAS/KRAS (ratio of KD value with respect to HRAS to KD value with respect to KRAS) [3]: B (a compound having 3 or more and less than 10 is denoted as B)

pIC50 [1]: 6.92
SMILES: CC[C@H](C)[C@@H]1NC(=O)[C@H](CC(C)C)N(C)C(=O)C[C@@H](C(=O)N2CCOCC2)N(C)C(=O)[C@H](C2CCCC2)N(C)C(=O)C2(CCCC2)NC(=O)[C@@H]2CCCN2C(=O)[C@H](CCc2ccc(C(F)(F)F)c(Cl)c2)NC(=O)CN(C)C(=O)[C@H](Cc2ccc(F)cc2)N2C/C=C\CC[C@@H](C2=O)N(C)C(=O)CN(C)C1=O [PP0607]
NRAS/KRAS (ratio of KD value with respect to NRAS to KD value with respect to KRAS) [2]: C (A compound having a KD ratio of 0.1 or more and less than 3 is denoted as C) | HRAS/KRAS (ratio of KD value with respect to HRAS to KD value with respect to KRAS) [3]: B (a compound having 3 or more and less than 10 is denoted as B)

pIC50 [1]: 7.32
SMILES: CCO[C@@H]1C[C@H]2C(=O)NC3(CCC3)C(=O)N(C)[C@@H](C3CCCC3)C(=O)N(C)[C@H](C(=O)N3CCCC3)CC(=O)N(C)[C@@H](CC)C(=O)N[C@@H]([C@@H](C)CC)C(=O)N(C)CC(=O)N(C)[C@H]3C/C=C\CCN(C3=O)[C@@H](CC3CCC(F)(F)CC3)C(=O)N(C)CC(=O)N[C@@H](CCc3cc(F)c(C(F)(F)F)c(F)c3)C(=O)N2C1 [PP1442]
NRAS/KRAS (ratio of KD value for NRAS to KD value for KRAS) ([2]; KD ratio class): A (a compound having 10 or more and less than 20 is denoted as A) | HRAS/KRAS (ratio of KD value for HRAS to KD value for KRAS) ([3]; KD ratio class): A (a compound having 10 or more and less than 20 is denoted as A)

pIC50 [1]: 7.24
SMILES: CCCN1C(=O)CN(C)C(=O)[C@@H]2CCN2C(=O)[C@H]([C@@H](C)CC)NC(=O)[C@H](CC(C)C)N(C)C(=O)C[C@@H](C(=O)N2CCOCC2)N(C)C(=O)[C@H](C2CCCC2)N(C)C(=O)C2(CCC2)NC(=O)[C@@H]2CCCN2C(=O)[C@H](CCc2ccc(C(F)(F)F)c(Cl)c2)NC(=O)CN(C)C(=O)[C@@H]1Cc1ccc(C(F)(F)F)cc1 [PP0402] ([NMeL]I[Aze][Sar][NPrPhe(4-CF3)][Sar][hPhe(3-Cl-4-CF3)]P[Ac4c][NMeGly(cPent)][NMeD]-Morpholide; lactam N-11)
NRAS/KRAS (ratio of KD value for NRAS to KD value for KRAS) [2]: B (a compound having 3 or more and less than 10 is denoted as B) | HRAS/KRAS (ratio of KD value for HRAS to KD value for KRAS) [3]: C (A compound having a KD ratio of 0.1 or more and less than 3 is denoted as C)

pIC50 [1]: 5.80
SMILES: CC[C@H](C)[C@@H]1NC(=O)[C@H](CC(C)C)N(C)C(=O)C[C@@H](C(=O)N(C)C)N(CCC2CCCC2)C(=O)[C@H](C2CCCC2)N(C)C(=O)C2(CCCC2)NC(=O)[C@@H]2CCCN2C(=O)[C@H](CCc2ccc(C(F)(F)F)c(Cl)c2)NC(=O)CN(C)C(=O)[C@H](Cc2ccc(F)cc2)N2CCCCC[C@@H](C2=O)N(C)C(=O)CN(C)C1=O [PP0975]

pIC50 [1]: 7.75
SMILES: CCOC1CC2C(=O)NC3(CCC3)C(=O)N(C)C(C(C)CC)C(=O)N(C)[C@H](C(=O)N3CCOCC3)CC(=O)N(C)[C@@H](CC(C)C)C(=O)N[C@@H]([C@@H](C)CC)C(=O)N(C)CC(=O)N(C)[C@H]3CCCCN(C3=O)[C@@H](Cc3ccc(C(F)(F)F)cc3)C(=O)N(C)CC(=O)N[C@@H](CCc3cc(F)c(C(F)(F)F)c(F)c3)C(=O)N2C1 (some centres unmarked) [PP0812]

pIC50 [1]: 8.54
SMILES: CCO[C@@H]1C[C@H]2C(=O)NC3(CC(C)(C)C3)C(=O)N(C)[C@@H](C3CCCC3)C(=O)N(C)[C@H](C(=O)N(C)C)CC(=O)N(C)[C@@H](CC(C)C)C(=O)N[C@@H]([C@@H](C)CC)C(=O)N(C)CC(=O)N(C)[C@H]3C/C=C\CCN(C3=O)[C@@H](Cc3ccc(CC)cc3)C(=O)N(C)CC(=O)N[C@@H](CCc3ccc(C(F)(F)F)c(OC)c3)C(=O)N2C1 [PP2687, (2S,8S,12R,14S,20S,23S,27S,30S,36S,38Z)-20-cyclopentyl-12-ethoxy-2-[(4-ethylphenyl)methyl]-27-isobutyl-8-[2-[3-methoxy-4-(trifluoromethyl)phenyl]ethyl]-N,N,3′,3′,4,19,22,26,32,35-decamethyl-30-[(1S)-1-methylpropyl]-3,6,9,15,18,21,25,28,31,34,42-undecaoxo-spiro[1,4,7,10,16,19,22,26,29,32,35-undecazatricyclo[34.5.1.0^10,14]dotetracont-38-ene-17,1′-cyclobutane]-23-carboxamide]

pIC50 ([1]; read-out: NCI-H441 cell proliferation inhibitory activity, 50% proliferation inhibitory concentration (IC50 value), NCI-H441, four days, CellTiter-Glo): 7.45
SMILES: CCC[C@H]1C(=O)N[C@@H]([C@@H](C)CC)C(=O)N(C2CC2)CC(=O)N(C)[C@H]2C/C=C\CCN(C2=O)[C@@H](Cc2ccc(C)cc2)C(=O)N(C)CC(=O)N[C@@H](CCc2ccc(C(F)(F)F)c(OC)c2)C(=O)N2C[C@H](OCC)C[C@H]2C(=O)N(C)C2(CCC2)C(=O)N(C)[C@@H](C2CCCC2)C(=O)N(C)[C@H](C(=O)N2CCCCC2)CC(=O)N1C [PP3096, (2S,8S,12R,14S,20S,23S,27S,30S,36S,38Z)-20-cyclopentyl-32-cyclopropyl-12-ethoxy-8-[2-[3-methoxy-4-(trifluoromethyl)phenyl]ethyl]-4,16,19,22,26,35-hexamethyl-30-[(1S)-1-methylpropyl]-23-(piperidine-1-carbonyl)-27-propyl-2-(p-tolylmethyl)spiro[1,4,7,10,16,19,2226293235-undecazatricyclo[34.5.1.0^10,14]dotetracont-38-ene-17,1′-cyclobutane]-3,6,9,15,18,21,25,28,31,34,42-undecone]

pIC50 [1]: 6.50
SMILES: CCCN1C(=O)CN(C)C(=O)CN(C)C(=O)[C@H]([C@@H](C)CC)NC(=O)[C@H](CC(C)C)N(C)C(=O)CC(C(=O)N2CCOCC2)N(C)C(=O)[C@H](C2CCCC2)N(C)C(=O)C2(CCCC2)NC(=O)[C@@H]2CCCN2C(=O)[C@H](CCc2ccc(C(F)(F)F)c(Cl)c2)NC(=O)C2CCCN2C(=O)[C@@H]1Cc1ccc(C(F)(F)F)cc1 (some centres unmarked) [PP0149] ([NMeL]I[Sar][Sar][NPrPhe(4-CF3)][ξP][hPhe(3-Cl-4-CF3)]P[Ac5c][NMeGly(cPent)][ξNMeD]-Morpholide; lactam N-11)
